Reference: patent US6911432B2, “Drugs, foods or drinks with the use of algae-derived physiologically active substances” (priority 1997, dated 2005)

Experiments:
[1] = system: HT-29; assay: antiproliferation assay, MTT method; assay type: cell-based, human
Experimental: (§1) Each fraction was sterilized by filtration and its 10 μl portion was placed in a well of a 96 well microtiter plate. […] The cell morphology was observed under an optical microscope. […] The absorbance at 590 nm was measured to determine a cell proliferation rate. (2) A 50 mM solution of agarobiose, agarotetraose or agarohexaose obtained in Example 3-(1) was sterilized by filtration and diluted 2-, 4-, 8-, 16-, 32-, 64- and 128-folds with sterilized water. […] [table] The number in Table 3 represents the dilution rate of the dilution added to the group whose absorbance at 590 nm was less than one-half of that of the control group to which water was added. […] Then, for agarobiose, agarotetraose and agarohexaose, the concentrations required for 50% proliferation inhibitory rate (IC50) are calculated based on the change in the absorbance at 590 nm, and are shown in Table 4.

[2] = system: MKN45; assay: antiproliferation assay, MTT method; assay type: cell-based, human
Experimental: as §1

[3] = system: HeLa S3; assay: antiproliferation assay, MTT method; assay type: cell-based, human
Experimental: as §1

[4] = system: A549; assay: antiproliferation assay, MTT method; assay type: cell-based, human
Experimental: as §1

[5] = system: HepG2; assay: antiproliferation assay, MTT method; assay type: cell-based, human
Experimental: as §1

[6] = system: RPMI1788; assay: antiproliferation assay, MTT method; assay type: cell-based, human
Experimental: as §1

[7] = system: T24; assay: antiproliferation assay, MTT method; assay type: cell-based, human
Experimental: as §1

[8] = system: MCF7; assay: antiproliferation assay, MTT method; assay type: cell-based, human
Experimental: as §1

[9] = system: HCT116; assay: antiproliferation assay, MTT method; assay type: cell-based, human
Experimental: as §1

[10] = system: WiDr; assay: antiproliferation assay, MTT method; assay type: cell-based, human
Experimental: as §1

[11] = system: T-47D; assay: antiproliferation assay, MTT method; assay type: cell-based, human
Experimental: as §1

[12] = system: HL-60 cells; assay: antiproliferation assay, MTT method, absorbance at 590 nm; assay type: cell-based, human; conditions: HL-60
[13] = system: RAW264.7; assay: antiproliferation assay, MTT method; assay type: cell-based, mouse
Experimental: as §1

[14] = system: A-172; assay: antiproliferation assay, MTT method; assay type: cell-based
Experimental: as §1

[15] = system: HT-1080; assay: antiproliferation assay, MTT method; assay type: cell-based
Experimental: as §1

[16] = system: iNOS; assay: iNOS expression by western blotting and RT-PCR; assay type: cell-based; conditions: protein level by western blotting, messenger RNA level by RT-PCR
Experimental: The confirmation was carried out at protein level by western blotting and at messenger RNA level by RT-PCR. That is, the compounds used in the present invention are useful for treating and preventing diseases that require inhibition of NO production by inhibiting expression of iNOS which is overexpressed by various factors to produce excess NO.

[17] = system: HL-60 cells; assay: viable cell count with Trypan Blue under a microscope; assay type: cell-based, human; conditions: final concentration 250 μM or 125 μM
Experimental: Agarobiose, agarotetraose, agarohexaose and agarooctaose (hereinafter, sometimes, these oligosuccharaides are referred to as agarooligosaccharides) obtained in Example 5 were dissolved in water at a concentration of 2.5 mM or 1.25 mM separately, and were sterilized by filtration. HL-60 cells were suspended in RPMI 1640 medium containing 10% fetal bovine serum at a concentration of 2.5×10^5 cells/4.5 ml and to this suspension was added 0.5 ml of each of the oligosaccharide solutions. The resultant mixture were incubated with 5% CO2 at 37° C. for 24 hours or 48 hours. A part of the cell culture was taken up, followed by addition of Trypan Blue thereto and observing under a microscope to count the number of viable cells.
That is, FIG. 14 illustrates the relation between the incubation time and the number of viable cells when HL-60 cells were cultured with addition of one of the oligosaccharides at the final concentration of 250 μM. FIG. 15 illustrates the relation between the incubation time and the number of viable cells when HL-60 cells were cultured with addition of one of the oligosaccharides at the final concentration of 125 μM. In FIGS. 14 and 15, the horizontal axes represent the incubation time (hrs.) and the vertical axes represent the number of viable cells (× 10^5/5 ml). The closed circle (●) represents the addition of water (control), the open diamond (⋄) represents the addition of agarobiose, the open circle (◯) represents the addition of agarotetraose, the open triangle (Δ) represents the addition of agarohexaose and the open square (□) represents the addition of agarooctaose.

[18] = dilution rate 1 corresponds to 5 mM in medium
[19] = read-out: IC50 (concentration required for 50% proliferation inhibitory rate)

OC[C@H]1O[C@@H](O[C@H]2[C@H]3OC[C@@H]2O[C@@H](O[C@H]2[C@@H](O)[C@@H](CO)O[C@@H](O[C@H]4[C@H]5OC[C@@H]4O[C@@H](O[C@H]4[C@@H](O)[C@@H](CO)O[C@@H](O[C@H]6[C@H]7OC[C@@H]6OC(O)[C@H]7O)[C@@H]4O)[C@H]5O)[C@@H]2O)[C@H]3O)[C@H](O)[C@@H](O)[C@H]1O (mixture of isomers) [Agarohexaose, agarohexaose]
dilution rate of the dilution added to the group whose absorbance at 590 nm was less than one-half of that of the control group [1, 18]: 32 | IC50 [1, 19]: 144 µM | dilution rate of the dilution added to the group whose absorbance at 590 nm was less than one-half of that of the control group [2, 18]: 16 | IC50 [2, 19]: 166 µM | dilution rate of the dilution added to the group whose absorbance at 590 nm was less than one-half of that of the control group [3, 18]: 16 | IC50 [3, 19]: 334 µM | dilution rate of the dilution added to the group whose absorbance at 590 nm was less than one-half of that of the control group [4, 18]: 16 | IC50 [4, 19]: 279 µM | dilution rate of the dilution added to the group whose absorbance at 590 nm was less than one-half of that of the control group [5, 18]: 16 | IC50 [5, 19]: 430 µM | dilution rate of the dilution added to the group whose absorbance at 590 nm was less than one-half of that of the control group [6, 18]: 128 | IC50 [6, 19]: 22 µM | dilution rate of the dilution added to the group whose absorbance at 590 nm was less than one-half of that of the control group [7, 18]: 8 | IC50 [7, 19]: 365 µM | dilution rate of the dilution added to the group whose absorbance at 590 nm was less than one-half of that of the control group [8, 18]: 16 | IC50 [8, 19]: 238 µM | dilution rate of the dilution added to the group whose absorbance at 590 nm was less than one-half of that of the control group [9, 18]: 32 | IC50 [9, 19]: 136 µM | dilution rate of the dilution added to the group whose absorbance at 590 nm was less than one-half of that of the control group [10, 18]: 16 | IC50 [10, 19]: 334 µM | dilution rate of the dilution added to the group whose absorbance at 590 nm was less than one-half of that of the control group [11, 18]: 16 | IC50 [11, 19]: 158 µM | dilution rate of the dilution added to the group whose absorbance at 590 nm was less than one-half of that of the control group ([12]; 50 mM solution diluted 2- to 128-fold, dilution rate 1 corresponds to 5 mM in the cell culture medium): 64 | IC50 [12, 19]: 78 µM | dilution rate of the dilution added to the group whose absorbance at 590 nm was less than one-half of that of the control group [13, 18]: 32 | IC50 [13, 19]: 109 µM | dilution rate of the dilution added to the group whose absorbance at 590 nm was less than one-half of that of the control group [14, 18]: 16 | IC50 [14, 19]: 151 µM | dilution rate of the dilution added to the group whose absorbance at 590 nm was less than one-half of that of the control group [15, 18]: 16 | IC50 [15, 19]: 185 µM | inhibition of iNOS expression [16]: inhibit this iNOS expression | apoptosis corpuscles [17]: apoptosis corpuscles were observed | number of viable cells as compared with the group to which water was added ([17]; 24 hours or 48 hours): decreased
